Values quoted from earlier work, collected in patent US11458199B2, “Liposome formulations” (OPKO Pharmaceuticals, LLC, priority 2012, dated 2022).

What was measured:
[1] = test system: PCME; settings: retrospective study, prevention of PCME after cataract surgery
[2] = biological target: VEGF; settings: read-out: binding affinity to VEGF (Kd)
Sequence of VEGF (P15692 214-315 limits assumed): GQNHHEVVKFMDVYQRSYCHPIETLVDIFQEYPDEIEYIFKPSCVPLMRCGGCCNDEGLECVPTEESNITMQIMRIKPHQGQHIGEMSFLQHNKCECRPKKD

| Compound | postoperative rate of macular edema [1] [%] | Kd [2] [pM] |
| --- | --- | --- |
| C[C@@H]1C[C@H]2[C@@H]3CCC4=CC(=O)C=C[C@]4(C)[C@@]3(F)[C@@H](O)C[C@]2(C)[C@@]1(O)C(=O)COP(=O)(O)O [dexamethasone sodium phosphate 0.1%, dexamethasone sodium phosphate] | 4.1 |  |
| CC(=O)OCC(=O)[C@@]1(O)CC[C@H]2[C@@H]3CCC4=CC(=O)C=C[C@]4(C)[C@H]3[C@@H](O)C[C@@]21C [prednisolone acetate 1%, prednisolone acetate] | 4.0 |  |
| Ranibizumab: recombinant humanized IgG1 kappa isotype monoclonal antibody fragment that binds VEGF-A |  | ~140 |
